Results from PMC6891286, “Towards the Development of an In vivo Chemical Probe for Cyclin G Associated Kinase (GAK)” (Molecules, 2019).

Assays:
Assay in all cases: KINOMEscan
Format in all cases: binding
Settings in all cases: 35 at 1 µM; read-out: % inhibition
MAP3K1 = biological target: T1, MAP3K1 (Homo sapiens, UniProt Q13233)
T1 construct: purchased Eurofins DiscoverX (KINOMEscan)
Method: (§1) KinomeScan Assay on 35 was performed as previously described at EuroFins DiscoverX (Fremont, CA, USA).

NEK6 = biological target: T2, NEK6 (Homo sapiens, UniProt Q9HC98)
T2 construct: purchased Eurofins DiscoverX (KINOMEscan)
Method: as §1

PIM1 = biological target: T3, PIM1 (Homo sapiens, UniProt P11309)
T3 construct: purchased Eurofins DiscoverX (KINOMEscan)
Method: as §1

PYK2 = biological target: T4, PYK2 (Homo sapiens, UniProt Q14289)
T4 construct: purchased Eurofins DiscoverX (KINOMEscan)
T4 sequence (Q14289 whole entry): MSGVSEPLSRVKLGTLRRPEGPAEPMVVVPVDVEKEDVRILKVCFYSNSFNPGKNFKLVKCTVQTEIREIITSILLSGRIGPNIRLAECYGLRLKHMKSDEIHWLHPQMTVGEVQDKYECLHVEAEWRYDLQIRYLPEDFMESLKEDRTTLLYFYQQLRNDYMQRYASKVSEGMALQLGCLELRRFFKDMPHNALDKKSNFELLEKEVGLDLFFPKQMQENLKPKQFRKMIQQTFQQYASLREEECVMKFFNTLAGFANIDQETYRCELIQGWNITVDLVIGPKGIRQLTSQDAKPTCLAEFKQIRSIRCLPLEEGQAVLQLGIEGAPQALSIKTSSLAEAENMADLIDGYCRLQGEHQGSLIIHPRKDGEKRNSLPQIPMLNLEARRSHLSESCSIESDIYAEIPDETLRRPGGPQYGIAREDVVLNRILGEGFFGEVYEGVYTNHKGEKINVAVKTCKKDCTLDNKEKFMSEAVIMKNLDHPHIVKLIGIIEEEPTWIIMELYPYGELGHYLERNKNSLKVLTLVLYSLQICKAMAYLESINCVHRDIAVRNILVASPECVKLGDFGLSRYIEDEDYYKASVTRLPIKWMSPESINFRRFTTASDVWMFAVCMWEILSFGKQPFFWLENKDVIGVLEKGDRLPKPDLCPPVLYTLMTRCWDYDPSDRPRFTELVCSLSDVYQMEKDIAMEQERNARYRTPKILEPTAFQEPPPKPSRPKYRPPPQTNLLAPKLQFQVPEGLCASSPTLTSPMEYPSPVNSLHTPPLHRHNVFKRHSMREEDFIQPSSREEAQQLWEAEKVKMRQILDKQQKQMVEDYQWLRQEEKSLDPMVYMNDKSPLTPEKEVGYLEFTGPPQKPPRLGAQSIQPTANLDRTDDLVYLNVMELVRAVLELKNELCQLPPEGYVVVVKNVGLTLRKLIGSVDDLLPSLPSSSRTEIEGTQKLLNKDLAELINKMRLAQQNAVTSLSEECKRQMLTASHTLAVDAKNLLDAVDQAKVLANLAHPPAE
Method: as §1

PIP5K1A = biological target: T5, PIP5K1A (Homo sapiens, UniProt Q99755)
T5 construct: purchased Eurofins DiscoverX (KINOMEscan)
Method: as §1

EPHA5 = biological target: T6, EPHA5 (Homo sapiens, UniProt P54756)
T6 construct: purchased Eurofins DiscoverX (KINOMEscan)
Method: as §1

PIK3CG = biological target: T7, PIK3CG (Homo sapiens, UniProt P48736)
T7 construct: purchased Eurofins DiscoverX (KINOMEscan)
Method: as §1

STK39 = biological target: T8, STK39 (Homo sapiens, UniProt Q9UEW8)
T8 construct: purchased Eurofins DiscoverX (KINOMEscan)
Method: as §1

EPHA1 = biological target: T9, EPHA1 (Homo sapiens, UniProt P21709)
T9 construct: purchased Eurofins DiscoverX (KINOMEscan)
Method: as §1

PIK3C2G = biological target: T10, PIK3C2G (Homo sapiens, UniProt O75747)
T10 construct: purchased Eurofins DiscoverX (KINOMEscan)
Method: as §1

CASK = biological target: T11, CASK (Homo sapiens, UniProt O14936)
T11 construct: purchased Eurofins DiscoverX (KINOMEscan)
Method: as §1

PRKCI = biological target: T12, PRKCI (Homo sapiens, UniProt P41743)
T12 construct: purchased Eurofins DiscoverX (KINOMEscan)
Method: as §1

[1] = biological target: T13, ABL1(E255K)-phosphorylated (Homo sapiens, UniProt P00519, E255K)
T13 construct: purchased Eurofins DiscoverX (KINOMEscan)
Method: as §1

DCAMKL2 = biological target: T14, DCAMKL2 (Homo sapiens, UniProt Q8N568)
T14 construct: purchased Eurofins DiscoverX (KINOMEscan)
T14 sequence (Q8N568 whole entry): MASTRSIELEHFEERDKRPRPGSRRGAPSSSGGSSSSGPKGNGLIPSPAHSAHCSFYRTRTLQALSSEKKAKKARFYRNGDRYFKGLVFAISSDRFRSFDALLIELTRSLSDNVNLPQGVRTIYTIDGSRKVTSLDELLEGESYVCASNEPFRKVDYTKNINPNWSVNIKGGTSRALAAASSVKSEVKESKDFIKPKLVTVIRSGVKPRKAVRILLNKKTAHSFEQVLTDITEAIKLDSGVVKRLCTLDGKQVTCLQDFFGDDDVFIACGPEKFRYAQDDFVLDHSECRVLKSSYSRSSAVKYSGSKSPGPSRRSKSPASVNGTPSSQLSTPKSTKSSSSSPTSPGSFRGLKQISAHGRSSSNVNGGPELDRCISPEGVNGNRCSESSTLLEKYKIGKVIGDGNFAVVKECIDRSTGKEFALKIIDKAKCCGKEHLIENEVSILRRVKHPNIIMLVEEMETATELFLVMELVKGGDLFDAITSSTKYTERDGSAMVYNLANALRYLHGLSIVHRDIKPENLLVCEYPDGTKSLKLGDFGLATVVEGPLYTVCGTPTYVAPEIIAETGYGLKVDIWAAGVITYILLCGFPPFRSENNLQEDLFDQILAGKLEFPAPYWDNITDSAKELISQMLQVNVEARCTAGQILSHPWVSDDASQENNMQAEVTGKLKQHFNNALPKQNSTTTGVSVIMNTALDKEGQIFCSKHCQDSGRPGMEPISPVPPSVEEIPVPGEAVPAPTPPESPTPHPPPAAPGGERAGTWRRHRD
Method: as §1

BMPR1B = biological target: T15, BMPR1B (Homo sapiens, UniProt O00238)
T15 construct: purchased Eurofins DiscoverX (KINOMEscan)
Method: as §1

PIK3CA(E542K) = biological target: T16, PIK3CA(E542K) (Homo sapiens, UniProt P42336, E542K)
T16 construct: purchased Eurofins DiscoverX (KINOMEscan)
Method: as §1

DLK = biological target: T17, DLK (Homo sapiens, UniProt Q12852)
T17 construct: purchased Eurofins DiscoverX (KINOMEscan)
Method: as §1

CAMK2A = biological target: T18, CAMK2A (Homo sapiens, UniProt Q9UQM7)
T18 construct: purchased Eurofins DiscoverX (KINOMEscan)
T18 sequence (Q9UQM7 whole entry): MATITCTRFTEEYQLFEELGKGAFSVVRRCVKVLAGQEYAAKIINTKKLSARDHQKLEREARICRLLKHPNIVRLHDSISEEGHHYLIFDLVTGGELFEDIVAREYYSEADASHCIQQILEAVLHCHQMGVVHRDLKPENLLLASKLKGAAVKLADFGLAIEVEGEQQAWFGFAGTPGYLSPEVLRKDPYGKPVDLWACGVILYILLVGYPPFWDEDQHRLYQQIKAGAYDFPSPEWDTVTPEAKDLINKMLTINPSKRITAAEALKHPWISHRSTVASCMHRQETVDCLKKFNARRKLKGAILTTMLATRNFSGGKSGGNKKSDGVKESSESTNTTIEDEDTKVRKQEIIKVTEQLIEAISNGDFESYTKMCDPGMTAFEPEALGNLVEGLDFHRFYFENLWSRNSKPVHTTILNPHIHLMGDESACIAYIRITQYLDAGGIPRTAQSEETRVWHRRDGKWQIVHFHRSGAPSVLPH
Method: as §1

RET = biological target: T19, RET (Homo sapiens, UniProt P07949)
T19 construct: purchased Eurofins DiscoverX (KINOMEscan)
Method: as §1

ERN1 = biological target: T20, ERN1 (Homo sapiens, UniProt O75460)
T20 construct: purchased Eurofins DiscoverX (KINOMEscan)
T20 sequence (O75460 19-977): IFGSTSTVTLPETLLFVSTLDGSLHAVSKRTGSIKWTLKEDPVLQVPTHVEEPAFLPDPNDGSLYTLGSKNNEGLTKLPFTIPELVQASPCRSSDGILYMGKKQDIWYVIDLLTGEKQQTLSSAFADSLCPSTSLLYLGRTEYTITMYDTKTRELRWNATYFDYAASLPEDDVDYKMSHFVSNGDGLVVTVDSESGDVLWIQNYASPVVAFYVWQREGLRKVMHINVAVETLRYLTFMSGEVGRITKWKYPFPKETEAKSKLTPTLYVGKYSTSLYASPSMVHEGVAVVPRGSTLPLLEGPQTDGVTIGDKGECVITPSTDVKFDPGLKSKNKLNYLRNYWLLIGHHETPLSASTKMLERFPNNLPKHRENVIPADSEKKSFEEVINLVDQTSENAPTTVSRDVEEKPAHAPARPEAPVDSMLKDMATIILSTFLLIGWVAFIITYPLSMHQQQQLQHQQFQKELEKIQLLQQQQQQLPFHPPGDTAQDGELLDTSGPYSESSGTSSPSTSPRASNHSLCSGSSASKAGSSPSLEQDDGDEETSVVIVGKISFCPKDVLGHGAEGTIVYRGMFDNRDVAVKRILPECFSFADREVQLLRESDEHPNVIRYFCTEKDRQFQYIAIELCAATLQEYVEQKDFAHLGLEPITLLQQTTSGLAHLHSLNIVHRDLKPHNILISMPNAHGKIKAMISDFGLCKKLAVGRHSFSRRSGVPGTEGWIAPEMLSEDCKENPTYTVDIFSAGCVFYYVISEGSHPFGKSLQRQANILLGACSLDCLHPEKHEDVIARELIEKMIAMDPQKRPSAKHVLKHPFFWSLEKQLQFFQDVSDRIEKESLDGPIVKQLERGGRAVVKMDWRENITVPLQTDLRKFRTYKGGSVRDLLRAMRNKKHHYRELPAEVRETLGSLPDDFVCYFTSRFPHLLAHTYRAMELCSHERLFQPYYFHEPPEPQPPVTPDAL
Method: as §1

SIK = biological target: T21, SIK (Homo sapiens, UniProt P57059)
T21 construct: purchased Eurofins DiscoverX (KINOMEscan)
Method: as §1

TAOK3 = biological target: T22, TAOK3 (Homo sapiens, UniProt Q9H2K8)
T22 construct: purchased Eurofins DiscoverX (KINOMEscan)
Method: as §1

[2] = biological target: T23, JAK2(JH1domain-catalytic) (Homo sapiens, UniProt O60674)
T23 construct: JAK2(JH1domain-catalytic); purchased Eurofins DiscoverX (KINOMEscan)
Method: as §1

[3] = biological target: T24, ABL1(H396P)-phosphorylated (Homo sapiens, UniProt P00519, H396P)
T24 construct: purchased Eurofins DiscoverX (KINOMEscan)
Method: as §1

FGFR3 = biological target: T25, FGFR3 (Homo sapiens, UniProt P22607)
T25 construct: purchased Eurofins DiscoverX (KINOMEscan)
T25 sequence (P22607 23-806): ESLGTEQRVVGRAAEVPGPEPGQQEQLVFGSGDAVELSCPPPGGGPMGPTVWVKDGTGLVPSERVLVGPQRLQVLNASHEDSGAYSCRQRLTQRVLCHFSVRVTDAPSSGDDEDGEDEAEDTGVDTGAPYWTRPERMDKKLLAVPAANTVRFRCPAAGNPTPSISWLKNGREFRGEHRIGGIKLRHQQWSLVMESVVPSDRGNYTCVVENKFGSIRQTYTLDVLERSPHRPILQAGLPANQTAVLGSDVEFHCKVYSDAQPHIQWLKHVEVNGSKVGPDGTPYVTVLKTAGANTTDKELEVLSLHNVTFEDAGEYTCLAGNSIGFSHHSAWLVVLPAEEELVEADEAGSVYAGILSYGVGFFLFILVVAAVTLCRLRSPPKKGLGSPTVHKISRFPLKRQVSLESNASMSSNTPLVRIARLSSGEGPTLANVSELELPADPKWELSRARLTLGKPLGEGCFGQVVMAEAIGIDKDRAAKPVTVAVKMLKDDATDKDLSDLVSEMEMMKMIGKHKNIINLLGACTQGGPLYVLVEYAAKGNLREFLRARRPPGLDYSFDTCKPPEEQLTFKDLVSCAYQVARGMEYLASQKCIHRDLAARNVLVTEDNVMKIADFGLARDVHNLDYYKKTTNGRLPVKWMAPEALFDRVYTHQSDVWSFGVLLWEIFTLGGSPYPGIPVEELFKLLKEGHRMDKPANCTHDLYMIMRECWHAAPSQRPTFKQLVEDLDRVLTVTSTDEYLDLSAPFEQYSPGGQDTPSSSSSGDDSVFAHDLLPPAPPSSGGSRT
Method: as §1

NIK = biological target: T26, NIK (Homo sapiens, UniProt Q99558)
T26 construct: purchased Eurofins DiscoverX (KINOMEscan)
Method: as §1

CSNK2A2 = biological target: T27, CSNK2A2 (Homo sapiens, UniProt P19784)
T27 construct: purchased Eurofins DiscoverX (KINOMEscan)
Method: as §1

WNK4 = biological target: T28, WNK4 (Homo sapiens, UniProt Q96J92)
T28 construct: purchased EuroFins DiscoverX (Fremont, CA, USA)
Method: as §1

PFTK1 = biological target: T29, PFTK1 (Homo sapiens, UniProt O94921)
T29 construct: purchased Eurofins DiscoverX (KINOMEscan)
Method: as §1

BUB1 = biological target: T30, BUB1 (Homo sapiens, UniProt O43683)
T30 construct: purchased Eurofins DiscoverX (KINOMEscan)
Method: as §1

PIK4CB = biological target: T31, PIK4CB (Homo sapiens, UniProt Q9UBF8)
T31 construct: purchased Eurofins DiscoverX (KINOMEscan)
T31 sequence (Q9UBF8 whole entry): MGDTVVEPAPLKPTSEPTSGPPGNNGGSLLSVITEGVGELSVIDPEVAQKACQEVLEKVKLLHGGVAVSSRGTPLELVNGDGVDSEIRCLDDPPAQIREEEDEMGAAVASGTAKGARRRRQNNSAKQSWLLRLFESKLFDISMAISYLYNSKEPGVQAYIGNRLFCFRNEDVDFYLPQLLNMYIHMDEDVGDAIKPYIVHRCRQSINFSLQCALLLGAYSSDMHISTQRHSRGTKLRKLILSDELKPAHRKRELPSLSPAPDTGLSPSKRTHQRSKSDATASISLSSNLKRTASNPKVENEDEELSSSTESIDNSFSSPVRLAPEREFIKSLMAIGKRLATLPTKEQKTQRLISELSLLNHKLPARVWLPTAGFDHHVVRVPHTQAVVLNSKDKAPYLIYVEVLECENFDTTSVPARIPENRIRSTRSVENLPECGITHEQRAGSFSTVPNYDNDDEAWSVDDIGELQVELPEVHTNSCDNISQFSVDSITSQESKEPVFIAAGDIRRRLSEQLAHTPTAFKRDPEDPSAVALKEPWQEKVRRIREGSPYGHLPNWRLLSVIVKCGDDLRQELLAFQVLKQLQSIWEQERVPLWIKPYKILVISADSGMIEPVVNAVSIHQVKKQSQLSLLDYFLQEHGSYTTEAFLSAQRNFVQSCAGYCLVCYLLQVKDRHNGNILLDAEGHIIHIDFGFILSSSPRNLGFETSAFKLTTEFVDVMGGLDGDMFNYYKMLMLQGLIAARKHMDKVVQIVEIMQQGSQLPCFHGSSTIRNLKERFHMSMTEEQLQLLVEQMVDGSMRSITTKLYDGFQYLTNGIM
Method: as §1

MYO3A = biological target: T32, MYO3A (Homo sapiens, UniProt Q8NEV4)
T32 construct: purchased Eurofins DiscoverX (KINOMEscan)
Method: as §1

Brc1ccc2nccc(Nc3ccc4cn[nH]c4c3)c2c1 [Compound 35, 6-Bromo-N-(1H-indazol-6-yl)quinolin-4-amine]
activity at 1 µM (MAP3K1): 86%
activity at 1 µM (NEK6): 100%
activity at 1 µM (PIM1): 100%
activity at 1 µM (PYK2): 100%
activity at 1 µM (PIP5K1A): 100%
activity at 1 µM (EPHA5): 100%
activity at 1 µM (PIK3CG): 100%
activity at 1 µM (STK39): 100%
activity at 1 µM (EPHA1): 100%
activity at 1 µM (PIK3C2G): 100%
activity at 1 µM (CASK): 68%
activity at 1 µM (PRKCI): 60%
activity at 1 µM [1]: 44%
activity at 1 µM (DCAMKL2): 100%
activity at 1 µM (BMPR1B): 91%
activity at 1 µM (PIK3CA(E542K)): 100%
activity at 1 µM (DLK): 100%
activity at 1 µM (CAMK2A): 100%
activity at 1 µM (RET): 100%
activity at 1 µM (ERN1): 91%
activity at 1 µM (SIK): 100%
activity at 1 µM (TAOK3): 97%
activity at 1 µM [2]: 98%
activity at 1 µM [3]: 100%
activity at 1 µM (FGFR3): 100%
activity at 1 µM (NIK): 100%
activity at 1 µM (CSNK2A2): 100%
activity at 1 µM (WNK4): 100%
activity at 1 µM (PFTK1): 69%
activity at 1 µM (BUB1): 93%
activity at 1 µM (PIK4CB): 100%
activity at 1 µM (MYO3A): 100%
